Consider twelve compounds from patent publication US20220089636A1, “TETRAZOLONE SUBSTITUTED STEROIDS AND USE THEREOF” (Beijing Xuanyi PharmaSciences Co., Ltd., priority 2019, published 2022).

As a reminder, the EC50 is the concentration needed to bring the measured effect to its halfway point. In general, Cmax refers to the peak of the concentration-time curve. The Tmax is the time at which the peak concentration occurs. As a reminder, the bioavailability is dose-corrected exposure relative to a reference, in per cent.

Structures are written as SMILES. Like-named read-outs stand apart in the source and are kept apart here.

Data set [1] deals with T1, α1β2γ2 GABAA receptor (Homo sapiens, UniProt P14867+P47870).
T1 construct: expressed in transfected cells
In words: Patch clamp electrophysiology assay of recombinant α1β2γ2 GABAA receptors (potentiation of 2 μM GABA-evoked Cl- current). It counts as cell-based. Conditions: HEK293T cells stably transfected with α1β2γ2 GABAA; whole cell, 2 μM GABA, -80 mV. How it is done:
Cellular electrophysiology is used to measure the pharmacological properties of GABAA receptor modulators in heterologous cell systems. Each compound is tested for its ability to affect GABA mediated currents at a submaximal agonist dose (GABA EC20=2 μM). HEK293T cells are stably transfected with the α1β2γ2 subunits of the GABAA receptor. Flasks or dishes of HEK293 GABAA cells were maintained in the medium (DMEM, 11% (v/v) heat inactivated FBS, 100 or 200 μg/ml G418, 40 μg/ml Hygromycin B, 80 μg/ml Zeocin) and incubated at 37° C. in a humidified incubator with 5% CO2. 12 to 24 hours prior to electrophysiological recordings, the cells were plated on glass cover slips placed in culture dishes and maintained under the same incubation and media conditions. The number of cells being plated on the cover slip should reach a confluence rate at which majority of the cells are single.
For the electrophysiological recordings in the study the following external and internal solutions were used (Table 1):
HEKA EPC 10 USB patch clamp amplifier (from HEKA Elektronik, Germany) was used in the whole cell recording. A cover slip with plenty of single HEK293T-GABAA cells on the surface was removed and placed into a continuously perfused (approximately 1-2 ml/minute) recording chamber mounted on an inverted microscope. GABAA Cl^− current was recorded from single cell using standard whole cell recording techniques. 2 μM GABA was used to evoke GABAA Cl^− current (2 μM of GABA was the EC10-EC20 value of agonist GABA obtained internally on the stable GABAA cells used in this study). After achieving break-in (whole-cell) configuration, the cell was voltage clamped at a holding potential of −80 mV. Only stable cells meeting the recording parameters (membrane resistance Rm>500 MΩ, access resistance (Ra)<15 MΩ, leak current<100 pA in 90% of the recording time) were used. 2 μM GABA was applied to the cell to induce stable Cl^− current first as control for about 2 seconds, test compounds (i.e., compounds of formula (AI), (I), (AII), and (II), or any subgenera thereof) were followed to be applied to the cells for 3 min, then 2 μM GABA was applied to observe the potentiation effect on the GABAA Cl^− current. Different doses of test compound from low to high were applied to the same cell when the cell was stable. A cell was considered stable when current size evoked by 2 μM GABA applied to the cell from time to time was similar. To minimize the possible desensitation of GABAA Cl^− current, duration between applications of test articles was set to 180 seconds.
Test compounds were dissolved in DMSO to form stock solutions (10 mM). Test compounds were diluted to 0.003, 0.01, 0.03, 0.1, 0.3, 1, 3 and 10 μM in bath solution. AU concentrations of test articles were tested on each cell. Data were analyzed using software provided by HEKA, Microsoft Excel and Graphpad Prism (Table 2).
On the technique in general: In patch-clamp work, channel activity is measured electrically.

A short description of data set [2]: Mouse PK study (i.v. and p.o.). It counts as in vivo. The conditions noted are these: plasma, male CD1 mice; for half-life: read-out: T1/2 (hr) i.v. (converted); for Vd: read-out: Vss; for bioavailability: 5 mg/kg p.o. vs 1 mg/kg i.v. The protocol: Test compounds were dosed to male CD1 mice at 5 mg/kg by oral gavage (p.o.) or 1 mg/kg by intravenous injection (i.v.). Blood samples were taken at 0.083, 0.25, 0.5, 1.0, 3.0, 6.0 and 24 hours post i.v. dosing and at 0.25, 0.5, 1.0, 3.0, 6.0 and 24 hours post p.o. dosing. The plasma concentration of compounds were determined by HPLC.

Where [3] appears, read: iv, 1 mg/kg i.v., read-out: AUClast (hr*ng/mL) i.v.
Setting [4] is: po, 5 mg/kg p.o., read-out: AUClast (hr*ng/mL) p.o.

T1 sequence (P14867 28-456): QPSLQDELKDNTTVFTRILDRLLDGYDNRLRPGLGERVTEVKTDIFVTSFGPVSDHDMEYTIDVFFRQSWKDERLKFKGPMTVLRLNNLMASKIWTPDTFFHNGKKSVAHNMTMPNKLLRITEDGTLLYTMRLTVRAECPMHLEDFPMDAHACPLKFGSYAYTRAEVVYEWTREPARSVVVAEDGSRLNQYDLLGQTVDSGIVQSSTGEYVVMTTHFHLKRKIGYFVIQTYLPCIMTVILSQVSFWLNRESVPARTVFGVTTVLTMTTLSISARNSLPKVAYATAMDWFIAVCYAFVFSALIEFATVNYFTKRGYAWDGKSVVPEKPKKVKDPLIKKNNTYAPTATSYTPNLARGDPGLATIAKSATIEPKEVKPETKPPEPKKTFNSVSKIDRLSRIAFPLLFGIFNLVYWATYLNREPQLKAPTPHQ
T1 sequence (P47870 25-512 limits assumed): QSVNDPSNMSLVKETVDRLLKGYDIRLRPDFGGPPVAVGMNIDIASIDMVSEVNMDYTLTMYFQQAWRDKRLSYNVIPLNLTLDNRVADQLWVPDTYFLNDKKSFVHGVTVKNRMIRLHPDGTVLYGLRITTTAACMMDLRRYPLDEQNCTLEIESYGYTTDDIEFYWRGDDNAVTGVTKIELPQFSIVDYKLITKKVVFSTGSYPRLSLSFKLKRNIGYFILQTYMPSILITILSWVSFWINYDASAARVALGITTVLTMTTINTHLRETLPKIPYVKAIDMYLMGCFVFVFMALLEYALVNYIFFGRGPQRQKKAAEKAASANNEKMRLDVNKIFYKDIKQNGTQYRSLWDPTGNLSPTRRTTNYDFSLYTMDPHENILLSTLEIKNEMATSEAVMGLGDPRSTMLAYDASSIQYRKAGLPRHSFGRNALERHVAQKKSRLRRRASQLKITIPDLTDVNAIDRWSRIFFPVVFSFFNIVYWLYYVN
T1 sequence (P18507 40-475 partner): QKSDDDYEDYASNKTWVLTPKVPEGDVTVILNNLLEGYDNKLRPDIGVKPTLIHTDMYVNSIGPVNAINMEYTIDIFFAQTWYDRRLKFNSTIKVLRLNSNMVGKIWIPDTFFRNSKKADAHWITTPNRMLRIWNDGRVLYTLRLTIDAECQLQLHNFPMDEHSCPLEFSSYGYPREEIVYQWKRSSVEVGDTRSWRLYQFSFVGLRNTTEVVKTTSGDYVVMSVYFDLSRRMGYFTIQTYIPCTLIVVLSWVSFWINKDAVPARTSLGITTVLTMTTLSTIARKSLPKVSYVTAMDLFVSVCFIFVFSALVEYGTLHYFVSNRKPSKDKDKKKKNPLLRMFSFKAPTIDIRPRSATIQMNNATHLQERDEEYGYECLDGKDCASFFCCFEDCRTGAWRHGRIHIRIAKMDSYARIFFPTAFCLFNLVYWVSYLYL

On to `CCn1nnn(CC(=O)[C@H]2CC[C@H]3[C@@H]4CC[C@@H]5C[C@](C)(O)CC[C@@H]5[C@H]4CC[C@]23C)c1=O` [Example 3, 1-ethyl-4-(2-((3R,5R,8R,9R,10S,13S,14S,17S)-3-hydroxy-3,13-dimethylhexadecahydro-1H-cyclopenta[a]phenanthren-17-yl)-2-oxoethyl)-1,4-dihydro-5H-tetrazol-5-one], for which the EC50 in data set [1] was 94 nM. Moreover, in data set [2] (iv, 1 mg/kg i.v.), the clearance was 24.3 mL/min/kg, the half-life is 0.57 h and the Vd was 0.93 L/kg. The AUC(0-t) in data set [2] (setting [3]) worked out at 673 ng·h/mL. For the same compound, in data set [2] (po, 5 mg/kg p.o.), the Cmax was determined as 973 ng/mL and the time of peak concentration (Tmax) is 30 min. Moreover, the bioavailability in data set [2] (po) turned out to be 40.5%. The AUC(0-t) in data set [2] (setting [4]) was determined as 1330 ng·h/mL.
On to `CC(C)n1nnn(CC(=O)[C@H]2CC[C@H]3[C@@H]4CC[C@@H]5C[C@](C)(O)CC[C@@H]5[C@H]4CC[C@]23C)c1=O` [Example 4, 1-(2-((3R,5R,8R,9R,10S,13S,14S,17S)-3-hydroxy-3,13-dimethylhexadecahydro-1H-cyclopenta[a]phenanthren-17-yl)-2-oxoethyl)-4-isopropyl-1,4-dihydro-5H-tetrazol-5-one], for which the EC50 in data set [1] was found to be 140 nM. Further, in data set [2] (iv, 1 mg/kg i.v.), the clearance is 24.8 mL/min/kg, the half-life was 0.54 h and the Vd was found to be 0.88 L/kg. In addition, the AUC(0-t) in data set [2] (setting [3]) is 659 ng·h/mL. In data set [2] (po, 5 mg/kg p.o.), the Cmax came out at 808 ng/mL and the Tmax was found to be 15 min. Besides, the bioavailability in data set [2] (po) amounted to 25.8%. The AUC(0-t) in data set [2] (setting [4]) is 782 ng·h/mL.
Turning to `CC(C)(C)n1nnn(CC(=O)[C@H]2CC[C@H]3[C@@H]4CC[C@@H]5C[C@](C)(O)CC[C@@H]5[C@H]4CC[C@]23C)c1=O` [Example 5, 1-(tert-butyl)-4-(2-((3R,5R,8R,9R,10S,13S,14S,17S)-3-hydroxy-3,13-dimethylhexadecahydro-1H-cyclopenta[a]phenanthren-17-yl)-2-oxoethyl)-1,4-dihydro-5H-tetrazol-5-one], the EC50 in data set [1] came out at 150 nM. In data set [2] (iv, 1 mg/kg i.v.), the clearance is 24.5 mL/min/kg, the half-life is 7.83 h and the Vd is 8.3 L/kg. Moreover, in data set [2] (setting [3]), the AUC(0-t) was determined as 634 ng·h/mL. In data set [2] (po, 5 mg/kg p.o.), the Cmax was 276 ng/mL and the Tmax is 30 min. Also, the bioavailability in data set [2] (po) was found to be 20.5%. Also, in data set [2] (setting [4]), the AUC(0-t) was determined as 633 ng·h/mL.
`C[C@@]1(O)CC[C@H]2[C@H](CC[C@@H]3[C@@H]2CC[C@]2(C)[C@@H](C(=O)Cn4nnn(C5CC5)c4=O)CC[C@@H]32)C1` [Example 6, 1-cyclopropyl-4-(2-((3R,5R,8R,9R,10S,13S,14S,17S)-3-hydroxy-3,13-dimethylhexadecahydro-1H-cyclopenta[a]phenanthren-17-yl)-2-oxoethyl)-1,4-dihydro-5H-tetrazol-5-one]: the EC50 in data set [1] worked out at 660 nM.
`C[C@@]1(O)CC[C@H]2[C@H](CC[C@@H]3[C@@H]2CC[C@]2(C)[C@@H](C(=O)Cn4nnn(CC5CC5)c4=O)CC[C@@H]32)C1` [Example 7, 1-(cyclopropylmethyl)-4-(2-((3R,5R,8R,9R,10S,13S,14S,17S)-3-hydroxy-3,13-dimethylhexadecahydro-1H-cyclopenta[a]phenanthren-17-yl)-2-oxoethyl)-1,4-dihydro-5H-tetrazol-5-one]: the EC50 in data set [1] is 99 nM. For the same compound, in data set [2] (iv, 1 mg/kg i.v.), the clearance is 68.7 mL/min/kg, the half-life was 0.6 h and the Vd turned out to be 1.69 L/kg. Besides, the AUC(0-t) in data set [2] (setting [3]) was 239 ng·h/mL. Also, in data set [2] (po, 5 mg/kg p.o.), the Cmax worked out at 186 ng/mL and the Tmax is 30 min. Moreover, in data set [2] (po), the bioavailability stood at 27.6%. The AUC(0-t) in data set [2] (setting [4]) stood at 326 ng·h/mL.
For `C[C@@]1(O)CC[C@H]2[C@H](CC[C@@H]3[C@@H]2CC[C@]2(C)[C@@H](C(=O)Cn4nnn(C5CCCC5)c4=O)CC[C@@H]32)C1` [Example 8, 1-cyclopentyl-4-(2-((3R,5R,8R,9R,10S,13S,14S,17S)-3-hydroxy-3,13-dimethylhexadecahydro-1H-cyclopenta[a]phenanthren-17-yl)-2-oxoethyl)-1,4-dihydro-5H-tetrazol-5-one], the EC50 in data set [1] was found to be 95 nM. In data set [2] (iv, 1 mg/kg i.v.), the clearance was 140 mL/min/kg, the half-life is 0.73 h and the Vd stood at 2.38 L/kg. Further, the AUC(0-t) in data set [2] (setting [3]) was determined as 117 ng·h/mL. In addition, in data set [2] (po, 5 mg/kg p.o.), the Cmax was found to be 22 ng/mL and the Tmax stood at 39.6 min. The compound also showed a bioavailability in data set [2] (po) of 4.48%. The AUC(0-t) in data set [2] (setting [4]) was 26 ng·h/mL.
In the case of `C[C@@]1(O)CC[C@H]2[C@H](CC[C@@H]3[C@@H]2CC[C@]2(C)[C@@H](C(=O)Cn4nnn(C5CCCCC5)c4=O)CC[C@@H]32)C1` [Example 9, 1-cyclohexyl-4-(2-((3R,5R,8R,9R,10S,13S,14S,17S)-3-hydroxy-3,13-dimethylhexadecahydro-1H-cyclopenta[a]phenanthren-17-yl)-2-oxoethyl)-1,4-dihydro-5H-tetrazol-5-one], the EC50 in data set [1] worked out at 1380 nM.
For the compound `C[C@@]1(O)CC[C@H]2[C@H](CC[C@@H]3[C@@H]2CC[C@]2(C)[C@@H](C(=O)Cn4nn[nH]c4=O)CC[C@@H]32)C1` [Example 19, 1-(2-((3R,5R,8R,9R,10S,13S,14S,17S)-3-hydroxy-3,13-dimethylhexadecahydro-1H-cyclopenta[a]phenanthren-17-yl)-2-oxoethyl)-1,4-dihydro-5H-tetrazol-5-one], in data set [1], the EC50 is 24000 nM.
Turning to `C[C@@]1(O)CC[C@H]2[C@H](CC[C@@H]3[C@@H]2CC[C@]2(C)[C@@H](C(=O)Cn4nnn(CC#N)c4=O)CC[C@@H]32)C1` [Example 20, 2-(4-(2-((3R,5R,8R,9R,10S,13S,14S,17S)-3-hydroxy-3,13-dimethylhexadecahydro-1H-cyclopenta[a]phenanthren-17-yl)-2-oxoethyl)-5-oxo-4,5-dihydro-1H-tetrazol-1-yl)acetonitrile], in data set [1], the EC50 stood at 560 nM.
For `C[C@@]1(O)CC[C@H]2[C@H](CC[C@@H]3[C@@H]2CC[C@]2(C)[C@@H](C(=O)Cn4nnn(CCC#N)c4=O)CC[C@@H]32)C1` [Example 21, 3-(4-(2-((3R,5R,8R,9R,10S,13S,14S,17S)-3-hydroxy-3,13-dimethylhexadecahydro-1H-cyclopenta[a]phenanthren-17-yl)-2-oxoethyl)-5-oxo-4,5-dihydro-1H-tetrazol-1-yl)propanenitrile], the EC50 in data set [1] came out at 290 nM.
Take `C[C@@]1(O)CC[C@H]2[C@H](CC[C@@H]3[C@@H]2CC[C@]2(C)[C@@H](C(=O)Cn4nnn(-c5cnco5)c4=O)CC[C@@H]32)C1` [Example 23, 1-(2-((3R,5R,8R,9R,10S,13S,14S,17S)-3-hydroxy-3,13-dimethylhexadecahydro-1H-cyclopenta[a]phenanthren-17-yl)-2-oxoethyl)-4-(oxazol-5-yl)-1,4-dihydro-5H-tetrazol-5-one]: the EC50 in data set [1] stood at 96 nM.
On to `Cn1cc(-n2nnn(CC(=O)[C@H]3CC[C@H]4[C@@H]5CC[C@@H]6C[C@](C)(O)CC[C@@H]6[C@H]5CC[C@]34C)c2=O)cn1` [Example 29, 1-(2-((3R,5R,8R,9R,10S,13S,14S,17S)-3-hydroxy-3,13-dimethylhexadecahydro-1H-cyclopenta[a]phenanthren-17-yl)-2-oxoethyl)-4-(1-methyl-1H-pyrazol-4-yl)-1,4-dihydro-5H-tetrazol-5-one], for which the EC50 in data set [1] was found to be 280 nM.
